Reference: ChEMBL document CHEMBL1125759, “A new ionizable chromophore of 1,4-bis(alkylamino)benzo[g]phthalazine which interacts with DNA by intercalation” (J Med Chem, 1991)
Values after ≈ are worked out from the molar mass of the structure shown.

Columns and labels:
[1] = Compound was evaluated for the protonation constant by binding to DNA by intercalation in calf thymus.; assay type: ADME, Bos taurus; settings: cattle
[2] = system: HeLa; assay: In vitro effective dose for its cytostatic activity against HeLa cells.; assay type: functional; settings: Homo sapiens, read-out: ED50 (the source's name)

SMILES	pKa [1]	EC50 [2] [µg/mL]
OCCCNc1nnc(NCCCO)c2cc3ccccc3cc12	8.3	25 (≈ 76.6 µM)
CN(C)CCCNc1nnc(NCCCN(C)C)c2cc3ccccc3cc12	6.2	1.25 (≈ 3.28 µM)
COCCCNc1nnc(NCCCOC)c2cc3ccccc3cc12	8.3	10 (≈ 28.2 µM)
COc1cc(NS(C)(=O)=O)ccc1Nc1c2ccccc2nc2ccccc12 [AMSACRINE]	7.4	
